Test: Size of dried aerosol particles by scanning electron microscopy
Type: physicochemical
Details: atomized at 1.5 bar gauge (TIPT-based sol 2.5 bar), dried in room air ~23° C., ~30% RH
Method: Various concentrations (e.g., 0.5-15% wt.) of solutions of sodium chloride in deionized water was prepared by mixing the crystals of table salt (NaCl) with deionized water at 45° C. for 15 min. The procedure for preparing precursor of silica (SiO2) was: tetraethoxysilane (TEOS), ethanol, deionized water, and HCl (mole ratio 1:3.8:1:5×10−5) were mixed at 60° C. for 120 min and then aged at room temperature under continuous stirring up to 43 hours. For synthesis of titania (TiO2) particles, titanium (IV) tetraisopropoxide (TIPT) and titanium (IV) butoxide (TBT)-based precursors were utilized. […]
For the salt solutions, the temperature and relative humidity of room air used for drying of droplets were ˜23° C. and ˜30% respectively. […] Provided the measured air velocity used to dry the droplets is ˜0.1-0.5 m/s (laminar flow, Re=300-1600), in terms of the drying kinetics of a single droplet, the generated droplets are expected to turn into dry particles after traveling 0.04-400 μm in room air, whereas the overall particle residence time in the setup is ˜1-5 s, which is much longer than the needed drying time. […]

## [Cl-].[Na+] [NaCl, sodium chloride]
  mean particle size: 227 nm

Reference: patent US20230143042A1, “SYSTEM AND METHOD FOR AEROSOL PARTICLE PRODUCTION OF SUBMICRON AND NANO STRUCTURED MATERIALS” (The Trustees of Princeton University, priority 2020, published 2023)
